Test results from US20050222114A1, “Use of new etonogestrel esters” (priority 2002, published 2005).
Read-outs that look alike come from different tables or passages of the source.

How the values were obtained:
[1] = Pharmacokinetics of etonogestrel esters after one i.m. injection in rabbits (plasma etonogestrel by LC-MSMS); details: rabbit; for initial peak level of etonogestrel in plasma: one i.m. injection 20 mg/kg in arachis oil (40 mg/ml)
Experimental: (§1) For the determination of the pharmacokinetic profile of the different etonogestrel-esters after parenteral application, i.m. application in the castrated rabbit model was chosen instead of s.c. Briefly, rabbits were injected once (day 1) with indicated etonogestrel-esters at 20 mg/kg in arachis oil (with a concentration of 40 mg/ml). At day 1, 2, 3, 4, 5, 6, 7, 8, 10, 12, 14, 21, 28, 35, 49, 63, 77, 92, 106, 120 and 133 blood was collected from the ear arteria, in EDTA-containing tubes. EDTA plasma was prepared (1500 g, 15 min) and stored at −20° C. With LC-MSMS the amount of parent compound (etonogestrel) was determined in these samples. The lower limit of this new assay is 0.5 nmol/l, from 0-250 nmol/l a linear curve was obtained with a correlation coefficient of 0,9998.

[2] = Pharmacokinetics of androgen esters after one s.c. injection in castrated rabbits (plasma MENT or testosterone by LC-MSMS); assay type: in vivo; details: castrated rabbit, one s.c. injection 20 mg/kg in arachis oil (100 mg/ml)
Experimental: With LC-MSMS, the amount of parent compound (testosterone or MENT) was determined in these samples.

[3] = Solubility in solvents determined visually (appearance); assay type: physicochemical; details: for solubility at two times the desired concentration: all four solvents tested, desired concentration 50 mg/ml etonogestrel-undecanoate, 100 mg/ml MENT-undecanoate
Experimental: To determine the solubility and viscosity of MENT undecanoate and etonogestrel undecanoate, four different solvents were used: • ethyl undecanoate • ethyl undecanoate+50% benzyl benzoate • arachis oil • arachis oil+50% benzyl benzoate
Using these solvents, the following solutions were prepared: • 100 mg/ml etonogestrel undecanoate in the different solvents • 50 mg/ml etonogestrel undecanoate in the different solvents • 200 mg/ml MENT undecanoate in the different solvents • 100 mg/ml MENT undecanoate in the different solvents • 50 mg/ml etonogestrel undecanoate+100 mg/ml MENT undecanoate in the different solvents
The two combined solvents were prepared by addition of 50 gram of ethyl undecanoate or arachis oil to 50 gram of benzyl benzoate. […] The arachis oil+50% benzyl benzoate solution was not filtered.
The solubility of the compounds in the solvents was determined visually. The viscosity was determined using a Brookfield model DV-III. The density of the solutions was determined using a Mettler Toledo DA-100M density meter.

[4] = hypogonadal men, one IM injection, FIG. 5; cited from earlier work
[5] = rabbit, in vivo, 20 mg/kg
Experimental: as §1

[6] = one i.m. injection 20 mg/kg in arachis oil

SMILES: C#CC1(OC(=O)CCCCCCCCC)CCC2C3CCC4=CC(=O)CCC4C3C(=C)CC21CC (stereo not shown) [etonogestrel decanoate]
- initial peak level of etonogestrel in plasma [1]: 24 nmol/L

SMILES: C#C[C@]1(OC(=O)CCCCCCCCCCC)CC[C@H]2[C@@H]3CCC4=CC(=O)CC[C@@H]4[C@H]3C(=C)C[C@@]21CC [etonogestrel dodecanoate]
- initial peak level of etonogestrel in plasma [1]: 9 nmol/L

SMILES: CCCCCCC(=O)O[C@H]1CC[C@H]2[C@@H]3CCC4=CC(=O)CC[C@]4(C)[C@H]3CC[C@]12C [Testosterone-enanthate]
- pharmacokinetic profile of released MENT or testosterone (in words) [2]: high peak of testosterone

SMILES: C#C[C@]1(OC(=O)CCCCCCCC)CC[C@H]2[C@@H]3CCC4=CC(=O)CC[C@@H]4[C@H]3C(=C)C[C@@]21CC [etonogestrel nonanoate]
- pharmacokinetic profile of released etonogestrel (in words) [1, 6]: lower peak levels and extended duration with serum levels of etonogestrel above 1 nmol/l

SMILES: C#C[C@]1(OC(=O)CCCCCCCCCC)CC[C@H]2[C@@H]3CCC4=CC(=O)CC[C@@H]4[C@H]3C(=C)C[C@@]21CC [etonogestrel undecanoate]
- duration of action: etonogestrel levels above 1 nmol/l [1, 6]: more than 92 days
- initial peak level of etonogestrel in plasma [1]: 13 nmol/L
- solubility at two times the desired concentration [3]: could be dissolved at two times the desired concentration

SMILES: C#C[C@]1(OC(=O)CCCCCC)CC[C@H]2[C@@H]3CCC4=CC(=O)CC[C@@H]4[C@H]3C(=C)C[C@@]21CC [etonogestrel heptanoate]
- initial peak level of etonogestrel in plasma [1]: 120 nmol/L

SMILES: CCCCCCCCCCC(=O)O[C@H]1CC[C@H]2[C@@H]3CCC4=CC(=O)CC[C@]4(C)[C@H]3CC[C@]12C [testosterone undecanoate]
- pharmacokinetics of serum testosterone in humans (in words) [4]: low initial release and steady-state levels of long duration

SMILES: C#C[C@]1(O)CC[C@H]2[C@@H]3CCC4=CC(=O)CC[C@@H]4[C@H]3C(=C)C[C@@]21CC [etonogestrel, (17α)-13-ethyl-17-hydroxy-11-methylene-18,19-dinorpregn-4-en-20-yn-3-one]
- initial peak level of etonogestrel in plasma [5]: 200 nmol/L

SMILES: CCCCCCCCCCC(=O)O[C@H]1CC[C@H]2[C@H]3[C@H](CC[C@]12C)[C@H]1CCC(=O)C=C1C[C@H]3C [MENT-undecanoate]
- heating necessary to dissolve ([3]; 200 mg/ml in arachis oil): approximately 50 °C
- solubility at two times the desired concentration [3]: could be dissolved at two times the desired concentration

SMILES: C#C[C@]1(OC(=O)CCCCCCCCCCCC)CC[C@H]2[C@@H]3CCC4=CC(=O)CC[C@@H]4[C@H]3C(=C)C[C@@]21CC [etonogestrel tridecanoate]
- pharmacokinetic profile of released etonogestrel (in words) [1, 6]: no initial levels of etonogestrel were observed
